Results: patent publication US12173320B2, “Production of red blood cells and platelets from stem cells” (BOSTON MEDICAL CENTER CORPORATION, priority 2012, dated 2024)

Key:
[1] = In vivo blood cell counts (Hemavet) in normal mice; parameters: species or system mouse
Procedure: C57B16 mice were injected daily intraperitoneally with FICZ suspended in vegetable oil using a weekly dose escalation scheme (Week 1: 1 mg/kg; Week 2: 2 mg/kg; Week 3: 4 mg/kg). Blood cell counts were assayed by Hemavet quantification of peripheral blood bleeds, at all 3 time points (Day 7, 14, and 21). Following the 3 week time point, mice were sacrificed and livers and spleens harvested for quantitative RT-PCR analyses.
To determine if FICZ treatment or whole animals would affect RBC or platelet production, C57B16 mice were injected daily intraperitoneally with FICZ suspended in vegetable oil using a weekly dose escalation scheme (Week 1: 1 mg/kg; Week 2: 2 mg/kg; Week 3: 4 mg/kg). […] Following the 3 week time point, mice were sacrificed and livers and spleens harvested.

iPSC-derived MEPs = assay: Growth / expansion of MEP cultures (manual counts, trypan blue exclusion); format: cell-based, human
Procedure: Plots were gated first in FSC vs. SSC and then from that population for PI ‘ and PE Hoechst’. […] (B) Representative phase contrast images of MEP population+FICZ. (C) Growth curve of day 15 MEPs+/−[…] FICZ. Cells were counted manually using trypan blue exclusion. Graphical data and the associated statistics are the result of three independent experiments per group.
High passage iPSCs were plated onto matrigel coated 6-well plates in iPSC media conditioned on iMEFs for 24 hours and supplemented with 2 ng/ml Rho Kinase Inhibitor and 20 ng/ml bFGF. After two days, iPSC media was replaced with Mesoderm DO-1 media: RPMI (Invitrogen A1049101) supplemented with 5 ng/mlhBMP-4 (R&D 314-BP-010), 50 ng/ml hVEGF (R&D 293-VE-010), 25 ng/mlhWnt3a (R&D 287-TC-500) and 10% KOSR. At Day 2, Mesoderm DO-1 media was replaced with Mesoderm D2 media: RPMI supplemented with 5 ng/ml hBMP-4, 50 ng/mlhVEGF, 20 ng/ml bFGF and 10% KOSR. Mesoderm D3 media consisted of the following: StemPro 34 (Invitrogen 10639011), 5 ng/ml hBMP-4, 50 ng/mlhVEGF, and 20 ng/ml bFGF. Mesoderm media for days 4 and 5 consisted of: StemPro 34, 15 ng/mlhVEGF, and 5 ng/ml bFGF. Day 6 mesoderm media: 74% IMDM (Invitrogen 12330061), 24% Hams F12 (Mediatech 10-080-CV), 1% B27 supplement (Invitrogen 12587-010), 0.5% N2-supplement (Invitrogen 17502-048), 0.5% BSA (Sigma A3059), 50 ng/ml hVEGF, 100 ng/mlbFGF, 100 ng/ml hSCF (R&D 255-SC-010), 25 ng/ml hFlt3 Ligand (R&D 308-FKN-005). Day 7 media: 74% IMDM, 24% Hams F12, 1% B27 supplement, 0.5% N2-supplement, 0.5% BSA, 50 ng/ml hVEGF, 100 ng/ml bFGF, 100 ng/ml hSCF, 25 ng/ml hFlt3 Ligand, 50 ng/ml hTPO (Genentech G140BT), 10 ng/ml IL-6 (R&D 206-IL-010), 0.5 U/ml hEPOgen and 0.2 uM 6-formylindolo[3,2-b]carbazole (FICZ) (Santa Cruz SC300019). After Day 7, 0.5 ml of Day 7 media was added to the culture daily without aspirating the media from the previous day. All base media mixes included 2 mM L-Glutamine (Invitrogen 25030081), 4×10^-4M Monothioglycerol (Sigma M1753), 100 ug/ml Primocin, and 50 ug/ml Ascorbic Acid. Cells in suspension were collected and assayed at Days 10-13 or split for long-term culture.
6-formylindolo[3,2-b]carbazole (FICZ), an AHR small molecule agonist, and CH223191, an AHR competitive inhibitor were used for these assays. CH223191 was added to mesoderm cultures at Day 6 at 5 μM (lx) and 2.504 (0.5×). 0.2 μM FICZ was added to cultures at Day 7 and media was added daily. DMSO was used as a vehicle control.

[2] = C57B16 mice, daily i.p. dose escalation

O=Cc1c2c(cc3c1=Nc1ccccc1-3)=Nc1ccccc1-2 [FICZ, 6-formylindolo[3,2-b]carbazole]
red blood cell (RBC) counts [1, 2]: None of the mice in the study showed significant variations
white blood cell (WBC) counts [1, 2]: None of the mice in the study showed significant variations
platelet counts ([1]; C57B16 mice, daily i.p., 1, 2, 4 mg/kg weekly escalation, Day 7, 14 and 21, versus mock or vehicle): increased platelet counts
platelet response ([1]; one mouse immediately exposed to higher doses (4 mg/kg), no week 1 escalation): more immediate and prolific platelet response
expansion of MEPs (cell number) (iPSC-derived MEPs; after addition of FICZ to cultures): from a few thousand to a billion cells in a few weeks
growth of MEPs (iPSC-derived MEPs; day 15 MEPs +/-0.2 μm FICZ, 2 week growth period, versus untreated): logarithmic expansion
time cells could be cultured (iPSC-derived MEPs; iPSC-derived MEPs under AhR agonism): > 120 days
